Source: patent US20250302795A1, “SMALL MOLECULE COMPOUNDS WITH NEGATIVE REGULATORY EFFECTS ON Nrf2 SIGNALING [sequence] AND THEIR POTENTIAL APPLICATIONS” (Beijing Hebabiz Biotechnology Co., Inc., priority 2022, published 2025)

Legend:
Type in all cases: in vivo, rat
[1] = system: rats with nonalcoholic steatohepatitis induced by a high-fat diet and CCl4; assay: Liver indices, non-alcoholic steatohepatitis model induced by high-fat diet and CCl4; settings: positive control group
Procedure: (§1) The normal control group were fed a standard diet while the other groups were exclusively fed a high-fat diet consisting of 88% basal diet +10% lard +2% cholesterol for the initial six weeks. Starting from the seventh week, they received subcutaneous injections of a 30% CCl4 olive oil solution at a dosage of 0.2 ml/100 g behind their back twice per week for a total of four times. Once the model was successfully replicated, the corresponding drugs were administered orally (10 ml/kg) in each treatment group, and both the normal control group and the model group received equal volumes of a 0.5% CMC-Na solution once daily for ten consecutive weeks. Throughout the experimental period, the rats were provided with ad libitum access to food and water, while the animal chamber was maintained under controlled conditions of quietness, natural lighting, a temperature of 25±0.5° C., and a humidity level of 55±5%. The rats' body weights were measured once per week and recorded.
After blood sampling from the abdominal aorta of rats, the liver tissue was isolated, rinsed with normal saline solution, dried using filter paper, weighed accurately, and subsequently calculated the Liver indices: Liver indices=wet liver weight/body weight×100%.

[2] = system: rats with nonalcoholic steatohepatitis induced by a high-fat diet and CCl4; assay: Serum biochemical indices, high-fat diet and CCl4 model; settings: end of tenth week of administration, positive control group
Procedure: as §1, with “Starting” for “The normal control group were fed a standard diet while the other groups were exclusively fed a high-fat diet consisting of 88% basal diet +10% lard +2% cholesterol for the initial six weeks. Starting”
(§2) At the end of the tenth week of administration, all rats underwent a 16-hour fasting period following their final administration and were intraperitoneally injected with a 20% ulinastatin solution (10 ml/kg) for anesthesia. Subsequently, blood samples were collected from the abdominal aorta and allowed to stand for one hour, and then centrifuged at 4° C. for fifteen minutes at a speed of 3000 r/min. Finally, the upper serum was stored at −80° C. Following the instructions provided with the biochemical index detection kit, levels of HDL-C, LDL-C, NEFA, AST, ALT, UA, TC, TG, PCIII, IV-C LN and HA in rat serum were determined.
According to the kit instructions, the concentration of fasting plasma glucose (FPG) in serum was determined using colorimetry, while the concentration of fasting insulin (FINS) in serum was measured through radioimmunoassay.

[3] = system: rats with nonalcoholic steatohepatitis induced by a high-fat diet and CCl4; assay: Four indices of serum hepatic fibrosis, high-fat diet and CCl4 model; settings: positive control group
Procedure: as §1, with “Starting” for “The normal control group were fed a standard diet while the other groups were exclusively fed a high-fat diet consisting of 88% basal diet +10% lard +2% cholesterol for the initial six weeks. Starting”
as §2

[4] = system: rats with non-alcoholic steatohepatitis induced by high-fat diet; assay: Liver indices, non-alcoholic steatohepatitis model induced by high-fat diet
Procedure: The normal control group was fed a standard diet for twelve weeks while the other groups were fed a high-fat diet consisting of 88% basal diet+10% lard+2% cholesterol for twelve weeks. After establishing the model, the drug groups received their respective treatments at a dosage of 10 ml/kg while the normal and model groups received an equal volume of 0.5% CMC-Na solution. The rats were provided with ad libitum access to water and food, while the animal chamber was maintained under controlled conditions of quietness, natural lighting, a temperature of 25±0.5° C., and a humidity level of 55±5%. The rats' body weights were measured once per week and recorded.
(3) Liver indices was determined by dividing the wet weight of the liver by the body weight of rats and multiplying by 100%, after liver tissue was isolated, washed with normal saline, dried using filter paper, and weighed following blood sampling from the abdominal aorta. (4) HE staining and oil red staining were performed on liver tissue samples obtained from the abdominal aorta of rats. The tissue was fixed in 10% neutral formalin, followed by embedding, slicing, dewaxing, staining, transparency treatment, and sealing using routine procedures. Microscopic examination was conducted to observe the pathological changes in rat liver tissues across different groups. Additionally, the NASH-CRN scoring system was employed to assess NAS scores. (5) Detection of Proteins Associated with Non-Alcoholic Steatohepatitis

[5] = system: rats with non-alcoholic steatohepatitis induced by high-fat diet; assay: Serum biochemical indices, non-alcoholic steatohepatitis model induced by high-fat diet; settings: end of 8th week of administration, positive control group
Procedure: After establishing the model, the drug groups received their respective treatments at a dosage of 10 ml/kg while the normal and model groups received an equal volume of 0.5% CMC-Na solution. The rats were provided with ad libitum access to water and food, while the animal chamber was maintained under controlled conditions of quietness, natural lighting, a temperature of 25±0.5° C., and a humidity level of 55±5%. The rats' body weights were measured once per week and recorded.
At the end of the 8th week of administration, all rats were anesthetized with a 20% ulinastatin solution (10 ml/kg) via an intraperitoneal injection after the final administration. Subsequently, blood was collected from the abdominal aorta post-anesthesia. After standing for 1 hour, the blood was centrifuged at 4° C. and 3000 r/min for 15 minutes to obtain the upper serum fraction which was then stored at −80° C. Following the instructions provided by the biochemical index detection kit, levels of HDL-C, LDL-C, NEFA, AST, ALT, UA, TC, TG, FPG and FINS in rat serum were determined.

## COC(=O)c1cc(OC)c2c(c1-c1c(CO)cc(OC)c3c1OCO3)OCO2 [Bicyclol]
[1]
  Liver Indices: 3.48 ± 0.41 %
[2]; FPG x FINS/22.5
  HOMA-IR: 5.48
[2]; serum
  ALT: 44.39 U/L
  AST: 66.96 U/L
  HDL-C: 1.29 mmol/L
  LDL-C: 0.90 mmol/L
  NEFA: 0.77 mmol/L
  TC: 1.85 mmol/L
  TG: 0.63 mmol/L
  UA: 126 µmol/L
[3]
  HA: 45.78 ± 22.99 µg/L
  IV-C: 13.22 ± 4.50 µg/L
  LN: 110.64 ± 44.60 µg/L
  PC-III: 8.78 ± 1.87 µg/L
[4]; NR218 at high, medium and low doses, P<0.01 or P<0.05
  liver indices versus model group (in words): significant decrease compared to the model group
[4]; high-fat diet model, positive control group
  Liver Indices: 3.77 ± 1.17 %
[5]; FPG x FINS/22.5
  HOMA-IR: 1.04
[5]; serum
  ALT: 547.14 U/L
  AST: 19.65 U/L
  HDL-C: 1.34 mmol/L
  LDL-C: 0.91 mmol/L
  NEFA: 0.92 mmol/L
  TC: 2.76 mmol/L
  TG: 0.83 mmol/L
  UA: 81.3 µmol/L
